Experiments:
PAI-1 = PAI-1 activity in the plasma of hypercholesterolemic rabbits; assay type: in vivo, New Zealand albino rabbits; conditions: TA at 300 mg/kg feed, 2% cholesterol diet, 4 weeks
Description: (§1) 47 female New Zealand albino rabbits were obtained at 4-8 weeks of age. They were divided into 7 treatment groups, which consisted of 5-10 animals per group. All the animals were placed on a vitamin E stripped diet, and all the diets contained 2% cholesterol except for the control group (which contained no cholesterol) for 4 weeks (containing the various TA or TPm treatments outlined below). [table] At the end of the treatment period the animals were sacrificed and the blood collected. The plasma was obtained from this blood and the levels of various markers of inflammation were determined and included: IL-1β, IL-6, IL-8, TNF, PAI-1, and CRP. Other markers of inflammation such as CD36 was determined from mRNA isolated from the aortas of the rabbits to determine expression levels.

TNF = TNF level in the plasma of hypercholesterolemic rabbits; assay type: in vivo, New Zealand albino rabbits; conditions: TA at 300 mg/kg feed, 2% cholesterol diet, 4 weeks
Description: as §1

IL-1β = IL-1β level in the plasma of hypercholesterolemic rabbits; assay type: in vivo, New Zealand albino rabbits; conditions: TA at 300 mg/kg feed, 2% cholesterol diet, 4 weeks
Description: as §1

[1] = system: T cells from old (>22 months) C57BL mice; assay: T cell proliferation ([3H] thymidine, anti-CD3/anti-CD28), old mice; assay type: cell-based; conditions: all the alpha-T treatments (12.5-100 μM), n=6, p<0.05, FIG. 8
Experimental: T cells from young (4 to 6 months) and old (>22 months) C57BL mice were isolated and purified from splenocytes by negative selection using Pan T cell isolation kit from Miltenyi Biotech.
The tocopherol phosphate mixture (alpha-TP) provided by Phosphagenics Limited was composed of approximately ⅔ mono-tocopheryl phosphate (MW 510.7) and ⅓ di-tocopheryl phosphate (MW 923.3), which makes the MW of the compound 598.0. Ethanol was used to dissolve the solid alpha-TP mixture to make a 107.52 mg/ml stock solution ([…]). 34 mg/ml alpha-tocopherol (alpha-T) in ethanol was used as a stock solution of alpha-T (79.06 mM). The solutions used for pre-incubation and incubation were prepared as follows: […]
After pre-incubation, the cells were stimulated (2×10^5 cells/well) in triplicate in a round bottom 96-well plate with plate-bound anti-CD3 (5 μg/ml, anti-CD3e (145-2C11), Pharmingen Cat# 553058) and soluble anti-CD28 (2 μg/ml, final concentration, anti-CD28 (37.51), Pharmingen Cat# 553294) in RPMI medium containing 5% FBS (final concentration and same concentration of vehicle, alpha-tocopherol or alpha-tocopherol phosphate used in the pre-incubation. The cells were incubated at 35° C., 5% CO2 for 64 hours, then, pulsed with 0.5 μCi of [^3H] thymidine for 8 hours. The cells were harvested onto filter paper and proliferation was quantified as the amount of [^3H] […]

CC(=O)Oc1c(C)c(C)c2c(c1C)CCC(C)(CCC[C@H](C)CCC[C@H](C)CCCC(C)C)O2 (stereo partly shown) [TA, tocopherol acetate]
plasma PAI-1 activity (PAI-1): modest decreases | plasma TNF (TNF): modest decreases | plasma IL-1β (IL-1β): modest decreases

Cc1c(C)c2c(c(C)c1O)CC[C@@](C)(CCC[C@H](C)CCC[C@H](C)CCCC(C)C)O2 [alpha-T, alpha-tocopherol]
T cell proliferation compared to vehicle [1]: significant increase in proliferation

— US20090005348A1, “Compounds Having Cytokine Modulating Properties” (VITAL HEALTH SCIENCES PTY LTD, priority 2005, published 2009)
